Source: patent US6297268A, “Imidazoles as cholesterol lowering agents” (Schering Corporation, priority 1999, dated 2001)

Key:
serum cholesterol [1] = test: Cholesterol lowering properties of the compound of Formula II in rats: serum cholesterol; type: in vivo, rat (Crl:CD(SD)BR VAF/Plus); conditions: for Group Mean Serum Cholesterol: single daily oral doses (gavage), at necropsy after 15-16 doses; for serum cholesterol (result in words): oral
Protocol: (§1) A homogeneous suspension of the compound of Formula II in aqueous methyl cellulose (aqueous methyl cellulose concentration: 0.4 percent weight/volume) was prepared for these studies and stored at ambient temperature conditions. The amount of the suspension fed to each rat was calculated to provide the desired dosage of the compound of Formula II (see below) for that rat.
(§2) Six-week-old rats (Rat/Crl:CD®(SD)BR VAF/Plus®, supplied by Charles River Laboratories, Kingston, N.Y.; ten rats per sex per group) were given single daily oral doses (via gavage tube) of the compound of Formula II (30, 100 or 300 mg/kg of body weight of the rat) as the above-stated suspension for 15 to 16 days. […] The rats were housed individually in suspended stainless steel wire mesh cages and were fed with a meal of Certified Rodent Diet® 5002 available from PMI® Feeds, Incorporated, St. Louis, Mo. Tap water was provided ad libitum during the study period. Blood was collected at necropsy over two days (after 15-16 doses), and serum chemistry parameters were measured.
(§3) The results obtained at necropsy (after 15-16 doses) are given in Table 1 for both the male and female rats: […]

serum triglyceride = test: Cholesterol lowering properties of the compound of Formula II in rats: serum triglycerides; type: in vivo, rat (Crl:CD(SD)BR VAF/Plus); conditions: for Group Mean Serum Triglyceride Concentrations: single daily oral doses (gavage)
Protocol: as §1, §2, §3

serum cholesterol [2] = test: Cholesterol lowering properties of the compound of Formula II in monkeys: serum cholesterol; type: in vivo, cynomolgus monkey (Macaca fascicularis); conditions: for % change in group mean serum cholesterol from last pretest to after 14 doses: daily oral (gavage), 22 hours after 14th dose
Protocol: Similar to Example 2, a homogeneous suspension of the compound of Formula II in aqueous methyl cellulose (0.4 percent weight/volume) was prepared for these studies and stored at ambient temperature conditions. The amount of the suspension fed to each monkey was calculated to provide the desired dosage of the compound of Formula II (given below) for that monkey.
(§4) Adult cynomolgus monkeys (four per sex per group, Macaca fascicularis monkey, supplied by Charles River BRF Incorporated, Houston, Tex.) were given single daily oral doses (gavage) of the compound of Formula II (30, 100 or 300 mg/kg of body weight) in the form of the above-stated suspension for 16 to 18 days. […] The monkeys were fed with nutritionally adequate amounts of PMI Inc. Certified Primate Diet® #46 (available from PMI Feeds, Incorporated) daily, at least one hour after dosing was completed. Certified monkey treats were offered daily. Tap water was provided ad libitum. Blood was collected and serum chemistry parameters were measured twice pretest and after 14 daily doses (22 hours after the 14th dose).
Mild to moderate decreases in serum cholesterol, compared with pretest and concurrent and/or historical control data, occurred in all dosed monkeys. The decreases were generally dose-dependent, except that there was no real difference between mid- and high-dose females.

[3] = Plasma analysis to confirm absorption in rats; type: in vivo, rat (Crl:CD(SD)BR VAF/Plus); conditions: oral, plasma analysis after one and 14 doses
Protocol: as §2, with “Blood was collected at necropsy over two days (after 15-16 doses), and serum chemistry parameters were measured.” left out

[4] = Plasma levels and pharmacokinetics in monkeys; type: in vivo, cynomolgus monkey (Macaca fascicularis); conditions: oral, plasma levels after one and 16 doses
Protocol: as §4

Structure (SMILES): O=C(NCc1ccc(Cc2c[nH]cn2)cc1)Nc1cc(Cl)cc(Cl)c1 [compound of Formula II]
- Group Mean Serum Cholesterol (serum cholesterol [1]; female rats, 30 mg/kg, control 29.7): 26.5 mg/dL
- Group Mean Serum Cholesterol (serum cholesterol [1]; female rats, 100 mg/kg, control 29.7): 19.4 mg/dL
- Group Mean Serum Cholesterol (serum cholesterol [1]; female rats, 300 mg/kg, control 29.7): 16.0 mg/dL
- serum cholesterol (result in words) (serum cholesterol [1]; female rats, 100 or 300 mg/kg, compared with concurrent control): Lower serum cholesterol concentrations
- Group Mean Serum Cholesterol (serum cholesterol [1]; male rats, 30 mg/kg, control 34.7): 20.9 mg/dL
- Group Mean Serum Cholesterol (serum cholesterol [1]; male rats, 100 mg/kg, control 34.7): 16.9 mg/dL
- Group Mean Serum Cholesterol (serum cholesterol [1]; male rats, 300 mg/kg, control 34.7): 12.3 mg/dL
- serum cholesterol (result in words) (serum cholesterol [1]; male rats, 30, 100 or 300 mg/kg): dose-dependent lower serum cholesterol
- Group Mean Serum Triglyceride Concentrations (serum triglyceride; female rats, 30 mg/kg, at necropsy after 15-16 doses, control 22.4): 20.5 mg/dL
- Group Mean Serum Triglyceride Concentrations (serum triglyceride; female rats, 100 mg/kg, after 15-16 doses, control 22.4, *group mean excludes individuals with values <10, actual mean would be lower): 13.6 mg/dL
- Group Mean Serum Triglyceride Concentrations (serum triglyceride; female rats, 300 mg/kg, after 15-16 doses, control 22.4, *group mean excludes individuals with values <10, actual mean would be lower): 16.3 mg/dL
- serum triglyceride (result in words) (serum triglyceride; male and female rats, 100 or 300 mg/kg, oral): Lower serum triglyceride concentrations
- Group Mean Serum Triglyceride Concentrations (serum triglyceride; male rats, 30 mg/kg, at necropsy after 15-16 doses, control 40.7): 37.2 mg/dL
- Group Mean Serum Triglyceride Concentrations (serum triglyceride; male rats, 100 mg/kg, at necropsy after 15-16 doses, control 40.7): 27.8 mg/dL
- Group Mean Serum Triglyceride Concentrations (serum triglyceride; male rats, 300 mg/kg, at necropsy after 15-16 doses, control 40.7): 21.2 mg/dL
- cholesterol (result in words) (serum cholesterol [2]; all monkeys dosed with 30, 100 or 300 mg/kg, oral): mildly to moderately decreased cholesterol
- % change in group mean serum cholesterol from last pretest to after 14 doses (serum cholesterol [2]; female monkeys, 30 mg/kg, control -03): -24%
- % change in group mean serum cholesterol from last pretest to after 14 doses (serum cholesterol [2]; female monkeys, 100 mg/kg, control -03, *n=3, excludes No. 22F, sacrificed on Day 9): -63%
- % change in group mean serum cholesterol from last pretest to after 14 doses (serum cholesterol [2]; female monkeys, 300 mg/kg, control -03): -59%
- % change in group mean serum cholesterol from last pretest to after 14 doses (serum cholesterol [2]; male monkeys, 30 mg/kg, control +02): -25%
- % change in group mean serum cholesterol from last pretest to after 14 doses (serum cholesterol [2]; male monkeys, 100 mg/kg, control +02): -46%
- % change in group mean serum cholesterol from last pretest to after 14 doses (serum cholesterol [2]; male monkeys, 300 mg/kg, control +02): -61%
- absorption (result in words) [3]: confirm absorption
- absorption (result in words) [4]: confirm absorption
